# pIC50: −log10 of the molar value. Read-outs that look alike come from different tables or passages of the source.
# Molecular target: T1, HDAC2 Human recombinant C-terminal FLAG-tag (Homo sapiens, UniProt Q92769)
# T1 construct: FLAG (C); purchased BPS Bioscience 50052
# Assay: Measurement of HDAC2 enzyme inhibitory activity (HTRF)
# Assay type: biochemical
# Conditions: recombinant HDAC2, H3K9ac peptide
# Experimental: Test Example 1: Measurement of HDAC2 Enzyme Inhibitory Activity
# The HDAC2 enzyme inhibitory activity was measured by the method described in the following test example.
# To each well of a 384-well plate (Corning, 4514), DMSO solution of the test compound was dispensed at 50 nL/well from a final concentration of 99 μM to 8 points (n=2) in the 3-fold dilution series using Echo555 (Beckman Coulter). 2.5 μl of 0.005 mg/mL recombinant enzyme HDAC2 (HDAC2 Human recombinant C-terminal FLAG-tag, BPS Bioscience, 50052) was added to each well, 2.5 μl of 0.6 μM H3K9ac peptide (Lys(Ac)9-Histone H3 (1-21)-GGK(Biotin), AnaSpec, 64361) was added, mixed, and reacted in a wet box at room temperature for 3 hours. 50 mM Tris HCL pH8.0, 137 mM sodium chloride, 2.7 mM potassium chloride, 1 mM magnesium chloride, 0.01% Tween20, and 0.1% BSA which were diluted with ultrapure water were used as a reaction buffer at this time. After the reaction, 5 μL of 10 μM SAHA (suberoylanilide hydroxamic acid) as a reaction terminator and the 5 μL of a mixture of 2.5 ng of H3K9me0 antibody (ActiveMotif, 61399) labeled in-house with europium cryptate (Cisbio, 65EUSABA) and 125 nM streptavidin-XL665 (Cisbio, 610SAXLA) as an HTRF (time-resolved fluorescence) reagent were added to each well, mixed, and allowed to stand in a wet box at room temperature for reaction. A detection buffer used at this time was 50 mM Tris HCL pH 8.0, 0.8 M potassium fluoride, and 0.1% BSA which were diluted with ultrapure water. After reacting for 2 hours or more, HTRF was measured using a multi-plate reader such as SpectraMax Paradigm (MOLECULAR DEVICE) or RUBYstar (BMG LABTECH). Ratio (665 nm/615-620 nm×10000) was calculated from the fluorescence values of two wavelengths, 615-620 nm and 665 nm, which were excited at 320-340 nm, and the energy transition was obtained.
# [1] = 3 hours room temperature, read-out: HDAC2 IC50
# T1 sequence (Q92769 whole entry): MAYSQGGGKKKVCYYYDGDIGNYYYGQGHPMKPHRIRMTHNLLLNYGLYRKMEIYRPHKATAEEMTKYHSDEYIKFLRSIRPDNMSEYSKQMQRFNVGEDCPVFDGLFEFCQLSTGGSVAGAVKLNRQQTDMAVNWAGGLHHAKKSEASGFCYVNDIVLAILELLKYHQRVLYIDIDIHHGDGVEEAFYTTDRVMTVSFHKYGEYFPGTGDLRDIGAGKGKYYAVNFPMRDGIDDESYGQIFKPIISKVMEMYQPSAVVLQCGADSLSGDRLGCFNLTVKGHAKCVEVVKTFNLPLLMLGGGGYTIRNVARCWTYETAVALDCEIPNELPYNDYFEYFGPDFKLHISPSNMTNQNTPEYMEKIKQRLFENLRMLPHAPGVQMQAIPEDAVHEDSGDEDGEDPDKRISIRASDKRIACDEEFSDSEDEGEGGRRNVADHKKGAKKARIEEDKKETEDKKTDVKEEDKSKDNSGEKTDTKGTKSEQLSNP
SMILES,pIC50 [1],pIC50 (read-out: IC50 (HDAC2))
Nc1ccc(-c2ccc(F)nc2)cc1NC(=O)c1cnc(NCC(F)(F)F)cn1 [Compound I-288],6.64,–
Nc1ccc(-c2cncs2)cc1NC(=O)c1cc2c(cn1)OCCO2 [Compound I-073],6.92,–
Nc1ccc(-c2ccc(F)nc2)cc1NC(=O)c1ccc(OC(F)F)cn1 [Compound I-143],6.41,–
Nc1ccc(-c2cncs2)cc1NC(=O)c1cnc(OCF)cn1 [Compound I-100],7.00,–
Nc1ccc(-n2ccc(F)c2)cc1NC(=O)c1cnc(NCc2ccccn2)cn1 [Compound I-302],7.10,–
Cn1cc(-c2ccc(N)c(NC(=O)c3ccc(N4CCOCC4)nn3)c2)cn1 [Compound I-275],6.59,–
Nc1ccc(-c2ccc(F)nc2)cc1NC(=O)c1cnc(N2CC3(CCC3)C2)cn1 [Compound I-223],7.05,–
Nc1ccc(-n2cccc2)nc1NC(=O)c1ccc2c(n1)OCC(=O)N2 [Compound I-234],6.62,–
Cn1cc(-c2cnc(C(=O)Nc3cc(-c4cncs4)ccc3N)cn2)cn1 [Compound I-010],7.51,–
CCc1cnc(C(=O)Nc2cc(-c3ccc(F)nc3)ccc2N)cn1 [Compound I-249],7.15,–
Nc1ccc(-c2cncs2)cc1NC(=O)c1cnc2[nH]ccc2n1 [Compound I-064],7.02,–
Cn1cc(-c2ccc(N)c(NC(=O)c3ccc(C(C)(C)C)cn3)c2)cn1 [Compound I-201],6.59,–
CCc1cnc(C(=O)Nc2nc(-n3cccc3)ccc2N)cn1 [Compound I-261],6.59,–
CCOc1ccc(C(=O)Nc2cc(-c3cnn(C)c3)ccc2N)nn1 [Compound I-269],6.74,–
Nc1ccc(-c2ccc(F)nc2)cc1NC(=O)c1cnc(OC2CCOCC2)cn1 [Compound I-287],6.77,–
Cn1cc(-c2ccc(N)c(NC(=O)c3cc4c(cn3)OCCO4)c2)cn1 [Compound I-098],6.62,–
Cn1cc(-c2cnc(C(=O)Nc3nc(-c4cccs4)ccc3N)c(F)c2)cn1 [Compound I-022],6.33,–
Cn1cc(-c2cc(C(=O)Nc3cc(-c4cncs4)ccc3N)no2)cn1 [Compound I-196],7.26,–
Cn1cc(-c2ccc(N)c(NC(=O)c3cnc(OC(F)F)cn3)c2)cn1 [Compound I-146],6.42,–
Cn1cc(-c2ccc(N)c(NC(=O)c3cnc(N4CCC4)cn3)c2)cn1 [Compound I-238],6.82,–

SMILES,pIC50 [1],pIC50 (read-out: IC50 (HDAC2))
CC(C)c1ccc(C(=O)Nc2cc(-c3cnn(C)c3)ccc2N)nc1 [Compound I-153],6.68,–
COCc1cnc(C(=O)Nc2cc(-c3ccc(F)nc3)ccc2N)cn1 [Compound I-218],6.82,–
Cn1cc(-c2ccc(C(=O)Nc3cc(-c4cccs4)ccc3N)nc2)nn1 [Compound I-001],7.25,–
CCNc1cnc(C(=O)Nc2cc(-c3ccc(F)nc3)ccc2N)cn1 [Compound I-285],7.40,–
Cn1cc(-c2ccc(C(=O)Nc3cc(-n4cccc4)ccc3N)nc2)cn1 [Compound I-056],6.92,–
Nc1ccc(-c2ccc(F)nc2)cc1NC(=O)c1cnc(NC2CCOCC2)cn1 [Compound I-286],7.15,–
CCOc1ccc(C(=O)Nc2cc(-c3ccc(F)nc3)ccc2N)nc1 [Compound I-164],6.68,–
Cc1nnc(-c2ccc(C(=O)Nc3cc(-c4ccc(F)nc4)ccc3N)nc2)o1 [Compound I-133],6.96,–
Nc1ccc(-c2cncs2)cc1NC(=O)c1ccc(Cl)cn1 [Compound I-071],6.80,–
Nc1ccc(-c2cncs2)cc1NC(=O)c1cc2c(cn1)OC(F)(F)CO2 [Compound I-070],6.62,–
N#Cc1ccnc(C(=O)Nc2cc(-c3cncs3)ccc2N)c1 [Compound I-109],6.72,–
Nc1ccc(-c2ccc(F)nc2)cc1NC(=O)c1ccc(Cl)nn1 [Compound I-264],6.57,–
COCc1ccc(C(=O)Nc2cc(-c3ccc(F)nc3)ccc2N)nc1 [Compound I-208],6.82,–
Cc1ccc(C(=O)Nc2cc(-c3ccc(F)nc3)ccc2N)nn1 [Compound I-256],6.59,–
Cn1cc(-c2ccc(C(=O)Nc3cc(-c4ccc(F)nc4)ccc3N)nc2)cn1 [Compound I-033],7.06,–
Nc1ccc(-c2cncs2)cc1NC(=O)c1noc2ccccc12 [Compound I-195],6.54,–
CC(C)(C)c1cnc(C(=O)Nc2cc(-c3ccc(F)nc3)ccc2N)cn1 [Compound I-203],6.62,–
Cc1cnc(C(=O)Nc2cc(-c3ccc(F)nc3)ccc2N)c(F)c1 [Compound I-209],6.82,–
Nc1ccc(-c2cncs2)cc1NC(=O)c1cc2ccccc2cn1 [Compound I-066],6.96,–

# Results, then the compound that gave them:
pIC50 [1],pIC50 (read-out: IC50 (HDAC2)),SMILES
6.66,–,CC(=O)N(C)c1cnc(C(=O)Nc2cc(-c3ccc(F)nc3)ccc2N)cn1 [Compound I-248]
7.14,–,COc1cnc(C(=O)Nc2cc(-c3cncs3)ccc2N)cn1 [Compound I-099]
6.51,–,Cn1cc(-c2ccc(C(=O)Nc3cc(-c4ccon4)ccc3N)nc2)cn1 [Compound I-084]
6.80,–,Nc1ccc(-c2ccc(F)nc2)cc1NC(=O)c1cc2c(cn1)OCCO2 [Compound I-097]
6.80,–,Nc1ccc(-c2cncs2)cc1NC(=O)c1ccc2c(n1)CCC2 [Compound I-083]
6.49,–,COCCOc1cnc(C(=O)Nc2nc(-n3cccc3)ccc2N)cn1 [Compound I-232]
7.15,–,Nc1ccc(-c2ccc(F)nc2)cc1NC(=O)c1cnc(N2CCOCC2)cn1 [Compound I-303]
6.47,–,Nc1ccc(-c2cncs2)cc1NC(=O)c1ccc2c(n1)CCCC2 [Compound I-082]
7.40,–,CN(Cc1ccccn1)c1cnc(C(=O)Nc2cc(-c3ccc(F)nc3)ccc2N)cn1 [Compound I-276]
6.54,–,Cn1cc(-c2ccc(N)c(NC(=O)c3cnc(CF)cn3)c2)cn1 [Compound I-147]
7.52,–,Cn1cc(-c2ccc(C(=O)Nc3cc(-c4cncs4)ccc3N)nc2)nn1 [Compound I-047]
7.15,–,Nc1ccc(-c2ccc(F)nc2)cc1NC(=O)c1cnc(N2CCC23COC3)cn1 [Compound I-236]
6.77,–,CC(C)(O)c1ccc(C(=O)Nc2cc(-c3ccc(F)nc3)ccc2N)nc1 [Compound I-193]
6.62,–,COc1cnc(C(=O)Nc2cc(-c3ccc(F)nc3)ccc2N)cn1 [Compound I-120]
6.85,–,Cc1cnc(C(=O)Nc2cc(-c3ccc(F)nc3)ccc2N)cn1 [Compound I-123]
6.66,–,COc1ccc(C(=O)Nc2cc(-c3cnn(C)c3)ccc2N)nc1 [Compound I-140]
6.30,–,Nc1ccc(-n2cccc2)nc1NC(=O)c1ccc(N2CCOCC2)cn1 [Compound I-206]
6.32,–,Nc1ccc(-c2cncs2)cc1NC(=O)c1cc(Cl)c(Cl)cn1 [Compound I-072]

pIC50 [1],pIC50 (read-out: IC50 (HDAC2)),SMILES
6.59,–,Nc1ccc(-c2cncs2)cc1NC(=O)c1ccc(C(F)(F)F)cn1 [Compound I-020]
6.80,–,N#Cc1ccc(C(=O)Nc2cc(-c3cncs3)ccc2N)nc1 [Compound I-069]
6.89,–,C#Cc1ccc(C(=O)Nc2cc(-c3cncs3)ccc2N)nc1 [Compound I-058]
–,6.89,CC(=O)Nc1ccc(C(=O)Nc2nc(-n3cccc3)ccc2N)nc1 [Compound I-305]
–,7.04,CC(=O)Nc1cnc(C(=O)Nc2cc(-c3ccc(F)nc3)ccc2N)cn1 [Compound I-310]
6.38,–,Cn1cc(-c2cnc(C(=O)Nc3nc(-c4ccccc4)ccc3N)cn2)cn1 [Compound I-039]
6.46,–,COCCOc1ccc(C(=O)Nc2nc(-n3cccc3)ccc2N)nc1 [Compound I-182]
6.92,–,CN(C)c1cnc(C(=O)Nc2cc(-n3ccc(F)c3)ccc2N)cn1 [Compound I-299]
6.66,–,Cc1ccc(C(=O)Nc2cc(-c3cnn(C)c3)ccc2N)nc1 [Compound I-155]
7.19,–,Cn1cc(-c2ccc(C(=O)Nc3cc(-c4cnco4)ccc3N)nc2)cn1 [Compound I-004]
6.47,–,Nc1ccc(-c2ccccc2)nc1NC(=O)c1ccc2c(n1)OCO2 [Compound I-217]
6.51,–,Cn1cc(-c2ccc(N)c(NC(=O)c3cnc(OC4CCOCC4)cn3)c2)cn1 [Compound I-291]
7.27,–,Cn1cc(-c2ccc(C(=O)Nc3cc(-c4ccco4)ccc3N)nc2)nn1 [Compound I-002]
–,7.15,CCNc1cnc(C(=O)Nc2cc(-c3cnn(C)c3)ccc2N)cn1 [Compound I-304]
7.04,–,Nc1ccc(-c2cncs2)cc1NC(=O)c1ccc(C2CC2)cn1 [Compound I-101]
6.77,–,CC(C)c1cnc(C(=O)Nc2cc(-c3cnn(C)c3)ccc2N)cn1 [Compound I-252]
6.43,–,Cn1cc(-c2ccc(C(=O)Nc3nc(-n4cccc4)ccc3N)nc2)cn1 [Compound I-025]
7.07,–,Nc1ccc(-c2ccc(F)nc2)cc1NC(=O)c1ccc(CN2CCCC2=O)cn1 [Compound I-104]

# — patent US20230119479A1, “A HISTONE DEACETYLASE INHIBITOR HAVING A NITROGEN-CONTAINING AROMATIC HETEROCYCLYL GROUP” (SHIONOGI & CO., LTD., priority 2019, published 2023)
